Source: paper PMC5218480 (PLoS ONE, 2017)

Test system: MV-4-11 cells
Test: Gene expression microarray analysis (Affymetrix PrimeView) and GSEA
Format: cell-based, human
Set-up: RFU PODN (11730768_x_at) / Fold change /veh PODN (11730768_x_at) / RFU LINC00158 (11744669_a_at) / Fold change /veh LINC00158 (11744669_a_at) / RFU DUSP10 (11751237_a_at) / Fold change /veh DUSP10 (11751237_a_at) / RFU ID3 (11757404_x_at) / Fold change /veh ID3 (11757404_x_at) / RFU PLEKHG5 (11737974_s_at) / Fold change /veh PLEKHG5 (11737974_s_at) / RFU LRRC4B (11730491_at) / Fold change /veh LRRC4B (11730491_at) / RFU GIMAP4 (11747438_a_at) / Fold change /veh GIMAP4 (11747438_a_at) / RFU KRT8 (11758183_x_at) / Fold change /veh KRT8 (11758183_x_at) / RFU CNN1 (11734310_a_at) / Fold change /veh CNN1 (11734310_a_at) / RFU VPS37D (11726825_at) / Fold change /veh VPS37D (11726825_at) / RFU C10orf10 (11716522_x_at) / Fold change /veh C10orf10 (11716522_x_at) / RFU KIR2DL2 /// KIR2DL4 /// KIR2DL5A /// KIR2DL5B /// KIR2DS1 /// KIR2DS2 /// KIR2DS3 /// KIR2DS4 /// KIR3DL3 /// KIR3DL3 /// KIR3DS1 (11738374_at) / Fold change /veh KIR2DL2 /// KIR2DL4 /// KIR2DL5A /// KIR2DL5B /// KIR2DS1 /// KIR2DS2 /// KIR2DS3 /// KIR2DS4 /// KIR3DL3 /// KIR3DL3 /// KIR3DS1 (11738374_at) / RFU C1QL1 (11718748_at) / Fold change /veh C1QL1 (11718748_at) / RFU TMPRSS4 (11747572_a_at) / Fold change /veh TMPRSS4 (11747572_a_at) / RFU HAMP (11756126_x_at) / Fold change /veh HAMP (11756126_x_at) / RFU RNFT2 (11725882_a_at) / Fold change /veh RNFT2 (11725882_a_at) / RFU NR4A2 (11747474_a_at) / Fold change /veh NR4A2 (11747474_a_at) / RFU ABCC12 (11746883_a_at) / Fold change /veh ABCC12 (11746883_a_at) / RFU TMEM136 (11760407_x_at) / Fold change /veh TMEM136 (11760407_x_at) / RFU CLDN22 /// WWC2 (11732394_at) / Fold change /veh CLDN22 /// WWC2 (11732394_at) / RFU HLA-DPB1 (11760878_x_at) / Fold change /veh HLA-DPB1 (11760878_x_at) / RFU SPINT1 (11716480_a_at) / Fold change /veh SPINT1 (11716480_a_at) / RFU GAP43 (11754022_s_at) / Fold change /veh GAP43 (11754022_s_at) / RFU A4GNT (11735810_at) / Fold change /veh A4GNT (11735810_at) / RFU PRB3 (11715151_x_at) / Fold change /veh PRB3 (11715151_x_at) / RFU TUBB4B (11761932_at) / Fold change /veh TUBB4B (11761932_at) / RFU CAPN14 (11732068_a_at) / Fold change /veh CAPN14 (11732068_a_at) / RFU TMCC2 (11721928_a_at) / Fold change /veh TMCC2 (11721928_a_at) / RFU IRGQ (11745062_a_at) / Fold change /veh IRGQ (11745062_a_at) / RFU FAM174B (11720279_a_at) / Fold change /veh FAM174B (11720279_a_at) / RFU TMPRSS4 (11748680_a_at) / Fold change /veh TMPRSS4 (11748680_a_at) / RFU FAM212B (11763350_a_at) / Fold change /veh FAM212B (11763350_a_at) / RFU PLEKHG5 (11743358_a_at) / Fold change /veh PLEKHG5 (11743358_a_at) / RFU ZSCAN30 (11745921_a_at) / Fold change /veh ZSCAN30 (11745921_a_at) / RFU CMKLR1 (11741424_a_at) / Fold change /veh CMKLR1 (11741424_a_at) / RFU LOC101060620 /// MAPK8IP1 (11723275_at) / Fold change /veh LOC101060620 /// MAPK8IP1 (11723275_at) / RFU SPTSSB (11747773_x_at) / Fold change /veh SPTSSB (11747773_x_at) / RFU PRSS12 (11739890_at) / Fold change /veh PRSS12 (11739890_at) / RFU BIN1 (11741810_x_at) / Fold change /veh BIN1 (11741810_x_at) / RFU WNT11 (11732464_a_at) / Fold change /veh WNT11 (11732464_a_at) / RFU C10orf10 (11716521_a_at) / Fold change /veh C10orf10 (11716521_a_at) / RFU C5orf56 (11738089_at) / Fold change /veh C5orf56 (11738089_at) / RFU CYB561 (11721691_x_at) / Fold change /veh CYB561 (11721691_x_at) / RFU ANKRD19P (11752326_a_at) / Fold change /veh ANKRD19P (11752326_a_at) / RFU OR2T12 /// OR2T33 /// OR2T8 (11738714_s_at) / Fold change /veh OR2T12 /// OR2T33 /// OR2T8 (11738714_s_at) / RFU VCAN (11748164_a_at) / Fold change /veh VCAN (11748164_a_at) / RFU JSRP1 (11732532_at) / Fold change /veh JSRP1 (11732532_at) / RFU KRTAP10-11 (11738290_x_at) / Fold change /veh KRTAP10-11 (11738290_x_at) / RFU MYO3A (11730013_a_at) / Fold change /veh MYO3A (11730013_a_at) / RFU EBF3 (11725865_a_at) / Fold change /veh EBF3 (11725865_a_at) / RFU CAMK2N1 (11719241_x_at) / Fold change /veh CAMK2N1 (11719241_x_at) / RFU C5orf56 (11738088_a_at) / Fold change /veh C5orf56 (11738088_a_at) / RFU OLFML3 (11715873_a_at) / Fold change /veh OLFML3 (11715873_a_at) / RFU LOC100653217 /// NTM (11731650_a_at) / Fold change /veh LOC100653217 /// NTM (11731650_a_at) / RFU MAPK11 (11762145_a_at) / Fold change /veh MAPK11 (11762145_a_at) / RFU FIZ1 (11724087_x_at) / Fold change /veh FIZ1 (11724087_x_at) / RFU OASL (11726364_x_at) / Fold change /veh OASL (11726364_x_at) / RFU SOX15 (11748057_x_at) / Fold change /veh SOX15 (11748057_x_at) / RFU CD79A (11719716_a_at) / Fold change /veh CD79A (11719716_a_at) / RFU HIST1H1D (11736915_at) / Fold change /veh HIST1H1D (11736915_at) / RFU CASKIN2 (11723855_a_at) / Fold change /veh CASKIN2 (11723855_a_at) / RFU LOC730098 (11760151_x_at) / Fold change /veh LOC730098 (11760151_x_at) / RFU OR4N2 (11742367_at) / Fold change /veh OR4N2 (11742367_at) / RFU PRRT2 (11749266_a_at) / Fold change /veh PRRT2 (11749266_a_at) / RFU SNX32 (11753110_a_at) / Fold change /veh SNX32 (11753110_a_at) / RFU CDHR5 (11726645_a_at) / Fold change /veh CDHR5 (11726645_a_at) / RFU RCAN1 (11760418_a_at) / Fold change /veh RCAN1 (11760418_a_at) / RFU FAM167A (11723789_a_at) / Fold change /veh FAM167A (11723789_a_at) / RFU FAM26E (11764081_at) / Fold change /veh FAM26E (11764081_at) / RFU ISYNA1 (11749810_s_at) / Fold change /veh ISYNA1 (11749810_s_at) / RFU ACY1 (11761880_at) / Fold change /veh ACY1 (11761880_at) / RFU 11764098_at / Fold change /veh 11764098_at / RFU SAMD14 (11745864_x_at) / Fold change /veh SAMD14 (11745864_x_at) / RFU NPB (11741838_a_at) / Fold change /veh NPB (11741838_a_at) / RFU TMPRSS6 (11731388_a_at) / Fold change /veh TMPRSS6 (11731388_a_at) / RFU KRTAP10-2 (11738614_at) / Fold change /veh KRTAP10-2 (11738614_at) / RFU ARHGAP8 /// PRR5-ARHGAP8 (11727945_x_at) / Fold change /veh ARHGAP8 /// PRR5-ARHGAP8 (11727945_x_at) / RFU KRTAP5-7 /// NADSYN1 (11734609_at) / Fold change /veh KRTAP5-7 /// NADSYN1 (11734609_at) / RFU RASL12 (11751679_a_at) / Fold change /veh RASL12 (11751679_a_at) / RFU CDKN2B (11736163_a_at) / Fold change /veh CDKN2B (11736163_a_at) / RFU PRF1 (11729649_at) / Fold change /veh PRF1 (11729649_at) / RFU, ZNF638 /// ZNF638-IT1 / Fold change vs veh, ZNF638 /// ZNF638-IT1 / RFU, PANK3 / Fold change vs veh, PANK3 / RFU, SH3YL1 / Fold change vs veh, SH3YL1 / RFU, ZEB2 / Fold change vs veh, ZEB2 / RFU, NRIP1 / Fold change vs veh, NRIP1 / RFU, PTTG1IP / Fold change vs veh, PTTG1IP / RFU, CAPN2 / Fold change vs veh, CAPN2 / RFU, MED14 / Fold change vs veh, MED14 / RFU, SNORA58 / Fold change vs veh, SNORA58 / RFU, C1orf63 / Fold change vs veh, C1orf63 / RFU, LRRFIP1 / Fold change vs veh, LRRFIP1 / RFU, NDUFAF7 / Fold change vs veh, NDUFAF7 / RFU, SLC12A2 / Fold change vs veh, SLC12A2 / RFU, IBTK / Fold change vs veh, IBTK / RFU, ESF1 / Fold change vs veh, ESF1 / Fold change vs veh, TMEM50B / RFU, TAOK1 / Fold change vs veh, TAOK1 / RFU, ACBD3 / Fold change vs veh, ACBD3 / RFU, TMA16 / Fold change vs veh, TMA16 / RFU, RWDD3 / Fold change vs veh, RWDD3 / RFU, BCAT1 / Fold change vs veh, BCAT1 / RFU, EDEM3 / Fold change vs veh, EDEM3 / RFU, TMEM33 / Fold change vs veh, TMEM33 / RFU, WDR75 / Fold change vs veh, WDR75 / RFU, AHCTF1 / Fold change vs veh, AHCTF1 / RFU, TFRC / Fold change vs veh, TFRC / RFU, ZDHHC17 / Fold change vs veh, ZDHHC17 / RFU, NOM1 / Fold change vs veh, NOM1 / RFU, ARL8B / Fold change vs veh, ARL8B / RFU, ZBTB11 / Fold change vs veh, ZBTB11 / RFU, TAMM41 / Fold change vs veh, TAMM41 / RFU, KIAA1704 /// LOC100996395 / Fold change vs veh, KIAA1704 /// LOC100996395 / RFU, ING1 / Fold change vs veh, ING1 / RFU, TRMT61B / Fold change vs veh, TRMT61B / RFU, FUBP3 / Fold change vs veh, FUBP3 / RFU, TP53 / Fold change vs veh, TP53 / RFU, TNKS2 / Fold change vs veh, TNKS2 / RFU, ZFP14 / Fold change vs veh, ZFP14 / RFU, ACTR2 / Fold change vs veh, ACTR2 / RFU, PPP3R1 / Fold change vs veh, PPP3R1 / RFU, PIK3R1 / Fold change vs veh, PIK3R1 / RFU, HNRNPA1 / Fold change vs veh, HNRNPA1 / RFU, RNF170 / Fold change vs veh, RNF170 / RFU, ZNF28 / Fold change vs veh, ZNF28 / RFU, RNGTT / Fold change vs veh, RNGTT / RFU, OGT / Fold change vs veh, OGT / RFU, BRD1 / Fold change vs veh, BRD1 / RFU, MARS / Fold change vs veh, MARS / RFU, ZNF655 / Fold change vs veh, ZNF655 / RFU, FAHD1 / Fold change vs veh, FAHD1 / RFU, BDP1 / Fold change vs veh, BDP1 / RFU, LRRCC1 / Fold change vs veh, LRRCC1 / RFU, ARID1A / Fold change vs veh, ARID1A / RFU, ZNF146 / Fold change vs veh, ZNF146 / RFU, ZNF330 / Fold change vs veh, ZNF330 / RFU, GPN3 / Fold change vs veh, GPN3 / RFU, C9orf123 / Fold change vs veh, C9orf123 / RFU, N4BP2L2 / Fold change vs veh, N4BP2L2 / RFU, ARFIP1 / Fold change vs veh, ARFIP1 / RFU, FAM179B / Fold change vs veh, FAM179B / RFU, BCL10 / Fold change vs veh, BCL10 / RFU, UHRF1BP1L / Fold change vs veh, UHRF1BP1L / RFU, BET1 / Fold change vs veh, BET1 / RFU, CNOT2 / Fold change vs veh, CNOT2 / RFU, ZNF268 / Fold change vs veh, ZNF268 / Fold change vs veh, ZNF507 / RFU, DGCR2 / Fold change vs veh, DGCR2 / RFU, WDSUB1 / Fold change vs veh, WDSUB1 / Fold change vs veh, HSP90B1 /// MIR3652 / RFU, ADSS / Fold change vs veh, ADSS / RFU, GK / Fold change vs veh, GK / RFU, ZNF148 / Fold change vs veh, ZNF148 / RFU, TAF9 / Fold change vs veh, TAF9 / RFU, SLC1A5 / Fold change vs veh, SLC1A5 / RFU, SLMO2 / Fold change vs veh, SLMO2 / RFU, ABCC4 / Fold change vs veh, ABCC4 / RFU, LOC101060439 /// RAP1B / Fold change vs veh, LOC101060439 /// RAP1B / RFU, RFX7 / Fold change vs veh, RFX7 / RFU, GTPBP10 / Fold change vs veh, GTPBP10 / RFU, CNEP1R1 / Fold change vs veh, CNEP1R1 / RFU, BIVM-ERCC5 /// ERCC5 / Fold change vs veh, BIVM-ERCC5 /// ERCC5 / RFU, ILF3 / Fold change vs veh, ILF3 / RFU 11762660_at / Fold change /veh 11762660_at / RFU VCAN (11757783_s_at) / Fold change /veh VCAN (11757783_s_at) / RFU DDX43 (11728927_at) / Fold change /veh DDX43 (11728927_at) / RFU KRT8 (11758188_x_at) / Fold change /veh KRT8 (11758188_x_at) / RFU NKD1 (11759106_at) / Fold change /veh NKD1 (11759106_at) / RFU SRD5A1 (11742802_a_at) / Fold change /veh SRD5A1 (11742802_a_at) / RFU TPSAB1 /// TPSB2 (11721975_s_at) / Fold change /veh TPSAB1 /// TPSB2 (11721975_s_at) / RFU GSTM3 (11746129_a_at) / Fold change /veh GSTM3 (11746129_a_at) / RFU IL23R (11737362_x_at) / Fold change /veh IL23R (11737362_x_at) / RFU TMEM51 (11727254_a_at) / Fold change /veh TMEM51 (11727254_a_at) / RFU PIWIL2 (11732686_x_at) / Fold change /veh PIWIL2 (11732686_x_at) / RFU ORM1 (11744905_x_at) / Fold change /veh ORM1 (11744905_x_at) / RFU CCDC152 (11743942_at) / Fold change /veh CCDC152 (11743942_at) / RFU ECM1 (11717891_a_at) / Fold change /veh ECM1 (11717891_a_at) / RFU IL23R (11748794_a_at) / Fold change /veh IL23R (11748794_a_at) / RFU TNFAIP8L3 (11732012_x_at) / Fold change /veh TNFAIP8L3 (11732012_x_at) / RFU MBOAT4 (11741988_at) / Fold change /veh MBOAT4 (11741988_at) / RFU 11764193_at / Fold change /veh 11764193_at / RFU TMEM53 (11763286_at) / Fold change /veh TMEM53 (11763286_at) / RFU MAGEB2 (11727129_at) / Fold change /veh MAGEB2 (11727129_at) / RFU TMEM200A (11744735_a_at) / Fold change /veh TMEM200A (11744735_a_at) / RFU CCDC152 (11751479_a_at) / Fold change /veh CCDC152 (11751479_a_at) / RFU FAM211A (11726209_a_at) / Fold change /veh FAM211A (11726209_a_at) / RFU RGS16 (11746705_a_at) / Fold change /veh RGS16 (11746705_a_at) / RFU VCAN (11755009_s_at) / Fold change /veh VCAN (11755009_s_at) / RFU RHOB (11743442_s_at) / Fold change /veh RHOB (11743442_s_at) / RFU RGS16 (11720943_a_at) / Fold change /veh RGS16 (11720943_a_at) / RFU RGS16 (11720944_at) / Fold change /veh RGS16 (11720944_at) / RFU, VPS4B / Fold change vs veh, VPS4B / RFU, CREB1 / Fold change vs veh, CREB1 / RFU, DNAJC13 / Fold change vs veh, DNAJC13 / RFU, GNAQ / Fold change vs veh, GNAQ / RFU, CDK5R1 / Fold change vs veh, CDK5R1 / RFU, ZRANB3 / Fold change vs veh, ZRANB3 / RFU, CUL4A / Fold change vs veh, CUL4A / RFU, CCNY / Fold change vs veh, CCNY / RFU, UFL1 / Fold change vs veh, UFL1 / RFU, COG3 / Fold change vs veh, COG3 / RFU, DIAPH2 / Fold change vs veh, DIAPH2 / RFU, SKA2 / Fold change vs veh, SKA2 / RFU, AFF3 / Fold change vs veh, AFF3 / RFU, LMF1 / Fold change vs veh, LMF1 / RFU, IPO11 / Fold change vs veh, IPO11 / RFU, DFFB / Fold change vs veh, DFFB / RFU, FOXP1 / Fold change vs veh, FOXP1 / RFU, CARD8 / Fold change vs veh, CARD8 / RFU, STRN3 / Fold change vs veh, STRN3 / RFU, ADK / Fold change vs veh, ADK / RFU, RASSF2 / Fold change vs veh, RASSF2 / RFU, WIPF1 / Fold change vs veh, WIPF1 / RFU, LARP1B / Fold change vs veh, LARP1B / RFU, RASA1 / Fold change vs veh, RASA1 / RFU, RB1 / Fold change vs veh, RB1 / RFU, PPFIA1 / Fold change vs veh, PPFIA1 / RFU, MAT2A / Fold change vs veh, MAT2A / RFU, CCT5 / Fold change vs veh, CCT5 / RFU, WDR92 / Fold change vs veh, WDR92 / RFU, CUX1 / Fold change vs veh, CUX1 / RFU, TTC7A / Fold change vs veh, TTC7A / RFU, TMEM135 / Fold change vs veh, TMEM135 / RFU, DEPTOR / Fold change vs veh, DEPTOR / RFU, CPM / Fold change vs veh, CPM / RFU, DNAJB6 / Fold change vs veh, DNAJB6 / RFU, CACNA2D3 / Fold change vs veh, CACNA2D3 / RFU, DTX4 / Fold change vs veh, DTX4 / RFU, TFCP2 / Fold change vs veh, TFCP2 / RFU, GMCL1 /// GMCL1P1 / Fold change vs veh, GMCL1 /// GMCL1P1 / RFU, AEBP2 / Fold change vs veh, AEBP2 / RFU, SNHG1 /// SNORD22 /// SNORD25 /// SNORD26 /// SNORD27 /// SNORD28 /// SNORD29 /// SNORD31 / Fold change vs veh, SNHG1 /// SNORD22 /// SNORD25 /// SNORD26 /// SNORD27 /// SNORD28 /// SNORD29 /// SNORD31 / Fold change (Aza/veh), C12orf56 (ProbeSet 11735607_a_at) / Fold change (ACY-1035/veh), C12orf56 (ProbeSet 11735607_a_at) / Fold change (Aza/veh), FGFR1OP (ProbeSet 11751329_s_at) / Fold change (ACY-1035/veh), FGFR1OP (ProbeSet 11751329_s_at) / Fold change (Aza/veh), VPS36 (ProbeSet 11739960_a_at) / Fold change (ACY-1035/veh), VPS36 (ProbeSet 11739960_a_at) / RFU SYPL1 (11715823_x_at) / Fold change /veh SYPL1 (11715823_x_at) / RFU IGFBP7 (11715501_s_at) / Fold change /veh IGFBP7 (11715501_s_at) / RFU REEP3 (11722064_at) / Fold change /veh REEP3 (11722064_at) / RFU IGLL1 (11728026_x_at) / Fold change /veh IGLL1 (11728026_x_at): dose or concentration left out as unconfirmed
Settings: MV-4-11 cells, 48 hours

In the case of `Nc1ncn([C@@H]2O[C@H](CO)[C@@H](O)[C@H]2O)c(=O)n1` [azacitidine], the “RFU NKD1 (11759106_at)” value is reported as 23.64 RFU.
